Legend:
Akt = test: Western blot analysis of Akt phosphorylation in PC-3 cells; assay type: cell-based, human; settings: Western blot
Description: (§1) (A) Left panel, Time- and dose-dependent effect of doxazosin on the cell viability of PC-3 cells in 1% FBS-supplemented RPMI 1640 medium. Values obtained from six replicates were plotted at each time point at the indicated concentrations of doxazosin. Right panel, induction of poly(ADP-ribose) polymerase (PARP) cleavage by doxazosin at the indicated concentrations after 48-h treatment. PARP proteolysis to the apoptosis-specific 85-kd fragment was monitored by Western blotting. Although there was no substantial accumulation of the 85-kd fragment, significant decrease in the level of native protein was noted. (B) Dose- and time-dependent (upper and lower panels, respectively) effects of doxazosin on Akt phosphorylation. (C) dose-dependent effect of doxazosin on ERK phosphorylation. PC-3 cells were treated with doxazosin at the indicated concentrations for 24 h or at 25 μM for the indicated times and lysed, and proteins in the resulting supernatants were resolved on SDS-PAGE and subjected to Western blot analysis. The phosphorylation status of Akt and ERKs was determined by immunoblotting with the respective phospho-specific antibodies. Unphosphorylated Akt and ERKs, as immunostained by anti-Akt and anti-ERK antibodies, were used as internal standards for the comparison of phospho-Akt and phospho-ERK levels among samples of different preparations. The blots are representative of three independent experiments.
(§2) (B) Western blot analysis of […] proteolysis and Akt dephosphorylation in PC-3 cells treated with the indicated concentrations of 33 for 48 h. (C) Effects of compound 44 on Akt phosphorylation in PC-3 cells treated with the indicated concentrations for 48 h.
PC-3 cells (1.5×106) treated with the test agent at the indicated concentrations in RPMI 1640 medium for 24 h were collected and sonicated. Protein concentrations of the lysates were determined by using a Bradford protein assay kit (Bio-Rad, Hercules, Calif.); equivalent amounts of proteins from each lysate were resolved in 10% SDS-polyacrylamide gel and then transferred onto Immobilon-nitrocellulose membranes (Millipore, Bellerica, MA) in a semidry transfer cell. The transblotted membrane was washed twice with Tris-buffered saline (TBS) containing 0.1% Tween 20 (TBST). After blocking with TBST containing 5% nonfat milk for 40 min, the membrane was incubated with the primary antibody (1:1000 dilution) in TBST-1% nonfat milk at 4° C. overnight. After treatment with the primary antibody, the membrane was washed three times with TBST for a total of 15 min, followed by goat anti-rabbit or anti-mouse IgG-horseradish peroxidase conjugates (diluted 1:3000) for 1 h at room temperature and wash three times with TBST for a total of 1 h. The immunoblots were visualized by enhanced chemiluminescence.

serum proteins = settings: cited from earlier work
ERKs = test: Western blot analysis of ERK phosphorylation in PC-3 cells; assay type: cell-based, human; settings: even at 50 μM
Description: (A) Left panel, Time- and dose-dependent effect of doxazosin on the cell viability of PC-3 cells in 1% FBS-supplemented RPMI 1640 medium. Values obtained from six replicates were plotted at each time point at the indicated concentrations of doxazosin. Right panel, induction of poly(ADP-ribose) polymerase (PARP) cleavage by doxazosin at the indicated concentrations after 48-h treatment. PARP proteolysis to the apoptosis-specific 85-kd fragment was monitored by Western blotting. Although there was no substantial accumulation of the 85-kd fragment, significant decrease in the level of native protein was noted. (B) Dose- and time-dependent (upper and lower panels, respectively) effects of doxazosin on Akt phosphorylation. (C) dose-dependent effect of doxazosin on ERK phosphorylation. […] The phosphorylation status of Akt and ERKs was determined by immunoblotting with the respective phospho-specific antibodies. […]
PC-3 cells (1.5×106) treated with the test agent at the indicated concentrations in RPMI 1640 medium for 24 h were collected and sonicated. Protein concentrations of the lysates were determined by using a Bradford protein assay kit (Bio-Rad, Hercules, Calif.); equivalent amounts of proteins from each lysate were resolved in 10% SDS-polyacrylamide gel and then transferred onto Immobilon-nitrocellulose membranes (Millipore, Bellerica, MA) in a semidry transfer cell. […]

PC-3 cells [1] = test: Cell viability / apoptotic death of PC-3 cells in 1% FBS-supplemented RPMI 1640 medium; assay type: cell-based, human
Description: as §1, §2
(§3) Effect of the test agent on cell viability was assessed by the MTT {[3-(4,5-dimethylthiazol-2-yl)-2,5-diphenyl-2H-tetrazolium bromide]} assay in 96-well, flat-bottomed plates, in which 8,000 PC-3 or DU-145 cells/well were seeded. Cells were exposed to the test agent at the indicated concentrations, in six replicates, in 10% FBS-supplemented-RPMI-1640 medium at 37° C. in 5% CO2 for 48 hr. The medium was removed and replaced by 150 μL of 0.5 mg/mL of MTT in RPMI-1640 medium, and cells were incubated in the CO2 incubator at 37° C. for 2 h. Supernatants were removed from the wells, and the reduced MTT dye was solubilized with 200 μL/well DMSO. Absorbance was determined on a plate reader at 570 nm.
Doxazosin induced apoptosis, in part, by facilitating Akt dephosphorylation. […] The potency of doxazosin in inducing apoptosis, however, was moderate.

[2] = test system: PC-3 cells overexpressing Akt^T308D/S473D; test: Viability of PC-3 cells transiently transfected with constitutively active Akt; assay type: cell-based, human; settings: 25 μM, 1% FBS-supplemented medium, 24 h, versus empty pcDNA vector
Method: (A) Expression of Akt^T308D/S473D in PC-3 transient transfection. Western blot analysis used antibodies against Akt, and the HA tag. B) Viability of PC-3 cells overexpressing Akt^T308D/S473D vis-à-vis cells transfected with empty pcDNA vector (mock) in the presence of 25 μM doxazosin in 1% FBS-supplemented medium for 24 h. Values are means±S.D. (n=3).
The constitutively active Akt construct HA-PKB-T308D/S473D was kindly provided by Dr. Brain Hemmings (Friedrich Miescher Institute, Basel, Switzerland). PC-3 cells were seeded into T-75 flasks (1.5×10^6/flask). Aliquots containing 3 μg of each plasmid or a control pcDNA3.1(+) vector in 750 μl of Opti-MEM medium (Invitrogen-Life Technologies, Inc.,) was incubated with 9 μl of the FuGene 6 reagent (Roche Diagnostics Corp., Indianapolis, Ind.) for 15 min. Each flask was washed with Opti-MEM medium and then received the plasmid-FuGene 6 mixture and 4 ml of Opti-MEM medium. The flask was placed in a CO2 incubator for 4 h, and the transfection medium was replaced with 10% FBS-supplemented RPMI 1640. […]
To examine the causal relationship between Akt deactivation and doxazosin-mediated apoptosis, the protective effect of the transient transfection of constitutively active Akt, Akt^T308D/S473D (ref. 14), on drug-induced PC-3 cell death, was assessed. […]

immunoprecipitated Akt = immunoprecipitated Akt (Homo sapiens, UniProt P31749); test: Kinase activity of immunoprecipitated Akt; assay type: biochemical
Sequence of immunoprecipitated Akt (P31749 whole entry): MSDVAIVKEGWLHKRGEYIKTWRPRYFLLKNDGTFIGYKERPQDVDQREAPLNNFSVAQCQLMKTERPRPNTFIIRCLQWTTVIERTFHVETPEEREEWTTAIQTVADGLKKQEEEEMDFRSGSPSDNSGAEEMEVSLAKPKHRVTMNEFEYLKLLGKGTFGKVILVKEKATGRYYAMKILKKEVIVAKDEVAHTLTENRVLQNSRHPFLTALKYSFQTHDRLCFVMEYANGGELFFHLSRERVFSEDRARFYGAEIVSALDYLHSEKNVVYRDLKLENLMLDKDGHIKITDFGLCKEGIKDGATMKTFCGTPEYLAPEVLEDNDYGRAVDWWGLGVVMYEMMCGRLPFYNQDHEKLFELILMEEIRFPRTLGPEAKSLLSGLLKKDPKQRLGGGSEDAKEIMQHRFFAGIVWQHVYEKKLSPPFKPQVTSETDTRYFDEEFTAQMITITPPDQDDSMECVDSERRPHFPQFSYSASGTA

PC-3 cells [3] = test: MTT cell viability assay, PC-3 cells in 10% FBS medium; assay type: cell-based, human; settings: RPMI 1640 with 10% FBS, 48 h, means ± S.D. (n = 6)
Method: PC-3 (p53−/−) human androgen-nonresponsive prostate cancer cells were purchased from the American Type Tissue Collection (Manassas, Va.). Cells were cultured in RPMI 1640 medium (Gibco, Grand Island, N.Y.) supplemented with 10% fetal bovine serum (FBS; Gibco) at 37° C. in a humidified incubator containing 5% CO2.
as §3
All compounds were evaluated for their ability to induce apoptotic death in human androgen-independent PC-3 prostate cancer in RPMI 1640 medium containing 10% fetal bovine serum (FBS). For representative compounds tested in DU-145 and LNCaP prostate cancer cells, the IC50 values for inhibiting cell proliferation were similar in these three cell lines irrespective of differences in androgen sensitivity, PTEN mutation, the functional status of p53 and Rb, and other biomarkers.

SMILES: COc1cc2nc(N3CCN(C(=O)C4COc5ccccc5O4)CC3)nc(N)c2cc1OC (stereo not drawn) [Doxazosin]
- effect on Akt phosphorylation (Akt): Akt dephosphorylation in a dose- and time-dependent manner
- binding affinity with serum proteins (serum proteins): high binding affinity
- effect on phosphorylation status of ERKs (ERKs): did not affect
- apoptotic death (PC-3 cells [1]; 1% FBS-supplemented RPMI 1640, 10 μM): no appreciable apoptotic death
- drug-induced apoptosis (PC-3 cells [1]; 1% FBS-supplemented RPMI 1640, 25 μM and up): susceptible to the drug-induced apoptosis
- IC50 (PC-3 cells [1]; 1% FBS-supplemented medium, read-out: IC50, apoptosis-inducing potency): 20 µM
- protection by Akt^T308D/S473D against drug-induced apoptotic death [2]: partial, yet significant, protection
- inhibitory effect on kinase activity of immunoprecipitated Akt (immunoprecipitated Akt): no inhibitory effects
- IC50 (PC-3 cells [3]): 45 µM

Reference: patent US8377948B2, “Antitumor agents and methods of their use” (The Ohio State University Research Foundation, priority 2004, dated 2013)
